{"source": "patent US20210330661A1", "about": "(China Medical University, priority 2020, published 2021)", "key": {"[1]": {"tested_on": "SARS-CoV-2 (strain NTU02) in Vero E6 cells", "experiment": "microbe, parasite or virus in culture", "assay_type": "cell-based"}, "[2]": {"tested_on": "SARS-CoV-2 (strain NTU02) in Vero E6 cells", "assay_type": "cell-based", "conditions": "5 μM; compared with DMSO; 3-day post infection; FIG. 12"}, "SARS-CoV-2 M^pro [3]": {"target": "T1, SARS-CoV-2 M^pro (Severe acute respiratory syndrome coronavirus 2, UniProt P0DTD1)", "experiment": "FRET assay of SARS-CoV-2 Mpro activity with tafenoquine or hydroxychloroquine", "assay_type": "biochemical", "conditions": "FIG. 1"}, "[4]": {"tested_on": "SARS-CoV-2 (strain NTU02) in Vero E6 cells", "assay_type": "cell-based", "conditions": "pre-treatment, 48 hours, MOI 0.0003, FIG. 13"}, "SARS-CoV-2 M^pro [5]": {"target": "T1, SARS-CoV-2 M^pro", "assay_type": "binding", "conditions": "various concentrations; FIG. 2A, 2B"}, "SARS-CoV-2 M^pro [6]": {"target": "T1, SARS-CoV-2 M^pro", "experiment": "Limited proteolysis assay by trypsin digestion", "conditions": "drug 0, 30, 60, 90 μM; FIG. 5A, 5B", "procedure": "To further probe the conformational changes of SARS-CoV-2 M^pro, the limited proteolysis assay by trypsin digestion is performed. […] Proteolysis is performed by mixing SARS-CoV-2 M^pro (0.8 mg/ml) with trypsin at a protease-to-protein ratio of 1:10 (w/w) in a reaction buffer (25 mM Tris at pH 8.0, 150 mM NaCl) at 37° C. for 30 minutes. The reaction is stopped by adding SDS sample loading buffer and boiling at 95° C. for 10 minutes and subjected to SDS-PAGE (4%-20%)."}, "SARS-CoV-2 M^pro [7]": {"target": "T1, SARS-CoV-2 M^pro", "experiment": "Soluble fraction / stability of Mpro in presence of drug", "conditions": "concentration up to 500 μM; FIG. 4"}, "[8]": {"tested_on": "SARS-CoV-2 (strain NTU02) in Vero E6 cells", "assay_type": "cell-based", "conditions": "pre-treated cells, various concentrations; compared to DMSO control; 3-day post infection; FIG. 14"}, "SARS-CoV-2 M^pro [9]": {"target": "T1, SARS-CoV-2 M^pro", "experiment": "FRET assay of SARS-CoV-2 Mpro activity with boceprevir or narlaprevir", "assay_type": "biochemical", "conditions": "50 μM drug; 1 μM Mpro; FIG. 6; read-out: inhibitory effect on SARS-CoV-2 Mpro activity"}}, "note": "Where two headings read alike, the source gives them in different places."}
{"compound": "COc1cc(C)c2c(Oc3cccc(C(F)(F)F)c3)c(OC)cc(NC(C)CCCN)c2n1", "note": "(centres unmarked) [tafenoquine]", "values": [{"measurement": "viral RNA versus DMSO-treated group", "setting": "[1]; 2.5 μM, day not given, FIG. 10", "result": "no significant difference"}, {"measurement": "yield of viral RNA in cell supernatant", "setting": "[1]; Day 1 to Day 2 after infection, FIG. 10", "result": "significantly represses"}, {"measurement": "EC50", "setting": "[1]; Severe acute respiratory syndrome coronavirus 2, Vero C1008, 48 h, read-out: half maximal effective concentration (EC50)", "result": "~2500", "unit": "nM"}, {"measurement": "SARS-CoV-2-induced cytopathic effect", "setting": "[2]", "result": "significant decrease"}, {"measurement": "inhibition at 90 µM", "setting": "SARS-CoV-2 M^pro [3]; 90 μM, 4 μM Mpro, read-out: inhibition against SARS-CoV-2 Mpro", "result": "~90", "unit": "%"}]}
{"compound": "CCC(CC)COC(=O)[C@H](C)N[P@](=O)(OC[C@H]1O[C@@](C#N)(c2ccc3c(N)ncnn23)[C@H](O)[C@@H]1O)Oc1ccccc1", "note": "[remdesivir]", "values": [{"measurement": "inhibition rate against viral RNA production", "setting": "[4]; 1 μM remdesivir", "result": "~26.3", "unit": "%"}]}
{"compound": "CCN(CCO)CCCC(C)Nc1ccnc2cc(Cl)ccc12", "note": "(centres unmarked) [hydroxychloroquine]", "values": [{"measurement": "shift in melting temperature / thermal stability of Mpro", "setting": "SARS-CoV-2 M^pro [5]", "result": "no influence on the thermal stability"}, {"measurement": "cleavage of Mpro by trypsin", "setting": "SARS-CoV-2 M^pro [6]", "result": "no concentrations of hydroxychloroquine tested reduce the cleavage"}, {"measurement": "inhibitory effect on SARS-CoV-2 Mpro", "setting": "SARS-CoV-2 M^pro [3]; various concentrations", "result": "does not demonstrate any significant inhibitory effects"}, {"measurement": "stability of Mpro", "setting": "SARS-CoV-2 M^pro [7]", "result": "does not influence the stability"}]}
{"compound": "CCCC[C@H](NC(=O)[C@@H]1[C@@H]2[C@H](CN1C(=O)[C@@H](NC(=O)NC1(CS(=O)(=O)C(C)(C)C)CCCCC1)C(C)(C)C)C2(C)C)C(=O)C(=O)NC1CC1", "note": "[narlaprevir]", "values": [{"measurement": "cytopathic effect induced by SARS-CoV-2 infection", "setting": "[8]", "result": "significantly lesser"}, {"measurement": "inhibition rate against viral RNA production", "setting": "[4]; 40 μM narlaprevir", "result": "approximately 76.4%"}, {"measurement": "inhibition at 50 µM", "setting": "SARS-CoV-2 M^pro [9]", "result": "64.1 ± 2.5", "unit": "%"}]}
{"compound": "CC(C)(C)NC(=O)N[C@H](C(=O)N1C[C@H]2[C@@H]([C@H]1C(=O)NC(CC1CCC1)C(=O)C(N)=O)C2(C)C)C(C)(C)C", "note": "(some centres unmarked) [boceprevir]", "values": [{"measurement": "inhibition at 50 µM", "setting": "SARS-CoV-2 M^pro [9]", "result": "76.5 ± 4.8", "unit": "%"}]}
